Data as given in patent publication US9809562B2, “NAT10 modulators for treating or preventing laminopathies, aging and cancer” (CAMBRIDGE ENTERPRISE LIMITED, priority 2014, dated 2017).
Structures can show the parent of a compound that is named as a salt.

Legend:
HGPS AG11498 cells = assay: Senescence-associated β-galactosidase in HGPS cells; type: cell-based, human
Protocol: The following KAT and KDAC inhibitors were used in the nuclear shape rescue screen, incubating cells with the molecules for 16 hours: trichostatin A (1 μM), sodium butyrate (5 mM), tubacin (10 μM), SAHA (5 μM), curcumin (10 μM), garcinol (50 μM), anacardic acid (1 μM), MB-3 (5 μM), 4-(4-chlorophenyl)-2-(2-cyclopentylidenehydrazinyl)thiazole (Compound 2) (50 μM), 4-(4-chlorophenyl)-2-(2-cyclopentylidene-1-(prop-2-yn-1-yl)hydrazinyl)thiazole (Compound 3) (50 μM) and cyclopentylidene-[4-(4-cyanophenyl)thiazol-2-yl)hydrazine (Compound 1) (Remodelin) (10 to 50 μM). For HGPS cellular fitness assays, Remodelin was incubated at 1 μM for 1 to 10 days, renewing the medium every 3 days. For long-term senescence assay, cells were kept and passaged in medium containing 1 μM Remodelin or DMSO only for 12 population doublings. Senescence was assessed after 8 days of Remodelin treatment when cells were at Population Doubling 12, and then after several weeks of Remodelin treatment, when cells reached Population Doubling 24 using the Senescence β-Galactosidase Staining Kit #9860 from Cell Signaling. Nocodazole, colchicine and latrunculin A (Sigma-Aldrich) were used at 200 ng/ml, 1 μg/ml and 1 μM respectively. Aphidicolin (Sigma-Aldrich) was used at 5 μg/ml for 16 h. Farnesyltransferase inhibitor FTI-277 was purchased from Tocris Bioscience and used at 5 μM. ATMi (KU55933) and ATRi (ATR-45) were obtained from Tocris Bioscience and from the Ohio State University respectively and used at 10 μM and 500 nM. Pifithrin alpha (Sigma-Aldrich) was used at 10 μM.

normal human fibroblasts = assay: Nuclear shape of normal fibroblasts, with or without FTI; type: cell-based
Text: FIG. 11: Remodelin prevents FTI induced nuclear shape defects in non-progeric cells. A) Analysis of Lamin A/C processing after Remodelin or FTI treatment, showing that Remodelin is not a FTI. B) Representative pictures of Lamin A/C IF staining after the indicated treatments. Arrows indicate FTI induced misshapen nuclei in normal fibroblasts. Scale bar: 50 μm. C) Quantification of misshapen nuclei with the indicated cell lines and inhibitor treatments (means of three independent experiments±s.e.m. n>178). D) Representative pictures of DAPI staining showing effects of FTI and Remodelin on nuclear shape of U2OS cells. Scale bars: 20 μm.
U2OS and SaOS-2 osteosarcoma cells, HeLa cervical cancer cells, A431 melanoma cells, NCI-SNU5 gastric cancer cells, MRC-5 lung fibroblast cells and Werner syndrome patient-derived SV40 fibroblast cells were grown in Dulbecco's modified Eagle medium (DMEM, Sigma-Aldrich) supplemented with 10% fetal bovine serum (BioSera), 2 mM L-glutamine, 100 U per ml penicillin, 100 μg ml^−1 streptomycin. […] Cells were analysed 48 to 72 hours after transfection.
The following KAT and KDAC inhibitors were used in the nuclear shape rescue screen, incubating cells with the molecules for 16 hours: trichostatin A (1 μM), sodium butyrate (5 mM), tubacin (10 μM), SAHA (5 μM), curcumin (10 μM), garcinol (50 μM), anacardic acid (1 μM), MB-3 (5 μM), 4-(4-chlorophenyl)-2-(2-cyclopentylidenehydrazinyl)thiazole (Compound 2) (50 μM), 4-(4-chlorophenyl)-2-(2-cyclopentylidene-1-(prop-2-yn-1-yl)hydrazinyl)thiazole (Compound 3) (50 μM) and cyclopentylidene-[4-(4-cyanophenyl)thiazol-2-yl)hydrazine (Compound 1) (Remodelin) (10 to 50 μM). […] Senescence was assessed after 8 days of Remodelin treatment when cells were at Population Doubling 12, and then after several weeks of Remodelin treatment, when cells reached Population Doubling 24 using the Senescence β-Galactosidase Staining Kit #9860 from Cell Signaling. […]

NAT10 = target: T1, NAT10 (Homo sapiens, UniProt Q9H0A0); assay: Clickable small molecule pull-down from live cells, western blotting; type: binding; conditions: pre-incubated in live U2OS cells, biotin linker, streptavidin beads
T1 construct: endogenous in cells; host or cells: U2OS
Protocol: Biotinylated Compound 3 and PEG4 biotinylated Compound A were generated in situ from Compounds 2 and 3, pre-incubated in live cells for 2 h prior to adding commercially available PEG4 carboxamide-6-azidohexanyl biotin and click reagents in cell extracts (used in click-pull-down and western blotting validation).
Click reaction reagents were added to the cell lysates as follows: 10 μM biotin azide (PEG4 carboxamide-6-Azidohexanyl Biotin, Life Sciences), 10 mM sodium ascorbate (Sigma-Aldrich), 2 mM CuSO4 (Life Sciences). Click reactions were incubated in the dark for 1 hour at 4° C. with rotation. Streptavidin beads were then incubated for 1 hour and samples were eluted and loaded on a gel as described above, before immunoblotting.

[1] = tested on: main lysine acetyltranferase proteins (KAT); assay: In vitro specificity against lysine acetyltransferases; type: biochemical
[2] = Compound concentration in heart and muscles; type: in vivo; conditions: mice, end of the 14 days oral treatment
Text: Right panel of FIG. 24: measurement of Compound 2 concentration in heart and muscles of mice treated with the indicated dose, at the end of the 14 days treatment.

HGPS fibroblasts = assay: Microarray gene expression, HGPS fibroblasts; type: cell-based, human
Protocol: Normal fibroblasts or HGPS fibroblasts were kept in culture for 12 population doublings with chronic treatment of 1 μM Compound 2 (top panels of FIG. 29) or transfected with siRNA against NAT10 for 3 days (bottom panels of FIG. 29). RNA was extracted and global gene expression was analysed by microarray. Volcano plots show a very high specificity of Compound 2 towards gene expression regulation of HGPS cells, with about 1000 genes affected more than 2 fold, whereas only 24 genes were affected in normal fibroblasts.

[3] = tested on: GFP-H2B expressing U2OS cells transfected with siLMNA; assay: Live imaging of GFP-H2B cells; type: cell-based, human; conditions: Compound 2 at 50 μM, independently of mitosis
Protocol: U2OS cells were transfected with siLMNA for 48 hours before addition of (Compound 2) at 50 μM. Pictures were acquired every 15 minutes for 16 hours in z-stack of 0.2 μm interval with a Deltavision PersonalDV (Applied Precision, 512×512 CoolSNAP HQ2 camera) equipped with a 100× UPlanSApo/1.40 oil objective (Olympus) and controlled with SoftWoRx software (Applied Precision). Movies were then assembled from pictures with ImageJ software.

T1 sequence (Q9H0A0 whole entry): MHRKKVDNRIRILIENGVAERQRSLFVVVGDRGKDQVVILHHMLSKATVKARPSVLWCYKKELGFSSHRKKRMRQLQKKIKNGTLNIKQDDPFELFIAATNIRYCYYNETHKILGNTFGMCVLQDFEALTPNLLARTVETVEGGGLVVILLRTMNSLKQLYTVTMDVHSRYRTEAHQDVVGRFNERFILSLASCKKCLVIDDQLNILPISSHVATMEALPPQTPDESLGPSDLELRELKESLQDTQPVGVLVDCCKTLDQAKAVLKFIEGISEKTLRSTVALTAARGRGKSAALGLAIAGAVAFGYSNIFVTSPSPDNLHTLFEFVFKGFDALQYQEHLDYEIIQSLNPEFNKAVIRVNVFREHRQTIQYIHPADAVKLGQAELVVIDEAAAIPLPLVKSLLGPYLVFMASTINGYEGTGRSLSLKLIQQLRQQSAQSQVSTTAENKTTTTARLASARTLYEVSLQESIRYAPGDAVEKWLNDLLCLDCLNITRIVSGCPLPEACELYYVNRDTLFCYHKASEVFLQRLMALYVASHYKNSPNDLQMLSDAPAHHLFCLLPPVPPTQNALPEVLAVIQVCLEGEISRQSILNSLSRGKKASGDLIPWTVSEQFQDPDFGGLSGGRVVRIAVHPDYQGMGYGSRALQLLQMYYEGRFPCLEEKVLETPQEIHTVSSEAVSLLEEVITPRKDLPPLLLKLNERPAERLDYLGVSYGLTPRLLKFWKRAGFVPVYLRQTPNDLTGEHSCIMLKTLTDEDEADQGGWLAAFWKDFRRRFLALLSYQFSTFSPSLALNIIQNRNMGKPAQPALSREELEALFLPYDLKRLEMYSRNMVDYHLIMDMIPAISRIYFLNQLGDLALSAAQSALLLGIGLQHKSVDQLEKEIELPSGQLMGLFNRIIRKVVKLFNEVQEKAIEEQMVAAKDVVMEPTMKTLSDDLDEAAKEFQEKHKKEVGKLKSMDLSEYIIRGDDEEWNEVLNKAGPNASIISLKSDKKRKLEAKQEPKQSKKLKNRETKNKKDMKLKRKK

N#Cc1ccc(-c2csc(NN=C3CCCC3)n2)cc1 [Compound 1, 4-(4-Cyanophenyl)-2-(2-cyclopentylidenehydrazinyl)thiazole]
long-term senescence of HGPS cells (HGPS AG11498 cells; 1 μM Remodelin, several weeks, 12 cell divisions (PDL 24)): prevented HGPS cell senescence even after several weeks of treatment
senescence of HGPS cells (β-galactosidase positive cells) (HGPS AG11498 cells; HGPS AG11498, Remodelin 1 μM, Pifithrin alpha 10 μM): decreased senescence
nuclear shape of normal cells (normal human fibroblasts; cells that do not express Progerin): did not induce nuclear shape defects in normal human fibroblasts
FTI-induced nuclear shape defects (normal human fibroblasts; normal fibroblasts co-treated with FTI): prevented FTI-induced nuclear shape defects

C#CCN(N=C1CCCC1)c1nc(-c2ccc(Cl)cc2)cs1 [Compound 3, 4-(4-Chlorophenyl)-2-(2-cyclopentylidene-1-(prop-2-yn-1-yl)hydrazinyl)thiazole]
retrieval of NAT10 in click pull-down (NAT10): specifically retrieved NAT10

Clc1ccc(-c2csc(NN=C3CCCC3)n2)cc1 [Compound 2, 4-(4-Chlorophenyl)-2-(2-cyclopentylidenehydrazinyl)thiazole Hydrochloride Salt]
inhibition of KAT activity towards histone substrates [1]: does not inhibit the activity of the main lysine acetyltranferase proteins (KAT)
compound concentration in heart and muscles [2]: very high concentration of the compound in both heart and muscles
number of genes affected more than 2 fold (HGPS fibroblasts; HGPS fibroblasts, 1 μM, 12 population doublings): about 1000 genes
genes misregulated in HGPS that are rescued (HGPS fibroblasts; HGPS vs normal fibroblasts, Venn diagrams): about half of the genes that are misregulated in HGPS compared to normal fibroblasts are rescued
time to complete nuclear shape rescue [3]: ≤ 12 h
